Measurements taken from US5369125A, “Cholesterol-lowering agents” (Merck & Co., Inc., priority 1993, dated 1994).
≈ marks a conversion by molar mass, not a printed value.

How the values were obtained:
Ras farnesylation = conditions: Hancock et al., Casey et al., Schafer et al.; cited from earlier work
Candida albicans MY1055 = test: Minimum fungicidal concentration, Candida albicans; assay type: cell-based; conditions: 35° C.
Experimental: (§1) The compounds are particularly active towards filamentous fungi and yeasts including Candida albicans and Cryptococcus neoformans. The sensitivity of filamentous fungi and yeast was determined using inhibitor dilution assays in microtiter format. The compounds were dissolved in 10% DMSO at 256 μg/mL and serially diluted in (DIFCO) Yeast Nitrogen Base supplemented with 1% glucose (YNBD) by two-fold dilutions yielding final drug concentrations ranging from 128-0.06 μg/mL. The wells were filled with 150 μL of inoculated media. Exponential phase Candida and Cryptococcus cells were diluted in YNBD such that the inoculum was 1.5-7.5×10^3 cells/mL. Aspergillus spores were harvested from a well-sporulated Sabouraud Dextrose Agar (SDA) slant in 0.01% Tween 80 and diluted into media to give an inoculum of 1×10^3 spores/mL. The microtiter dishes were incubated at 35° C. for 24 to 48 hours. […] After recording the MIC of yeasts, plates were shaken on a (SARSTEDT) TPM2 shaker to resuspend the cells and a MIC-2000 inoculator (DYNATECH) was used to transfer a 1.5 μL sample from each well in the microplate to a spot in a single-well tray containing SDA. Inoculated trays were incubated at 35° C. and results were recorded at 24 h or 48 h (for Cryptococcus). The minimum fungicidal concentration (MFC) was defined as the lowest concentration of drug showing no growth or less than 4 colonies per spot. […]

[1] = test system: Cryptococcus neoformans MY1051; test: Minimum fungicidal concentration, Cryptococcus neoformans; assay type: cell-based; conditions: 35° C.
Experimental: as §1

Squalene Synthase = target: T1, Squalene Synthase (Rattus norvegicus, UniProt Q02769); test: Squalene synthase assay (standard in vitro protocol, rat liver microsomes, [4-14C]farnesyl pyrophosphate); assay type: biochemical; conditions: 30° C., 20 minutes
T1 construct: The livers from these rats were homogenized in 5 volumes (mL/g) of ice cold 50 mM HEPES; from tissue; host or cells: liver microsomes of male Charles River CD rats fed 0.1% lovastatin
T1 sequence (Q02769 1-416): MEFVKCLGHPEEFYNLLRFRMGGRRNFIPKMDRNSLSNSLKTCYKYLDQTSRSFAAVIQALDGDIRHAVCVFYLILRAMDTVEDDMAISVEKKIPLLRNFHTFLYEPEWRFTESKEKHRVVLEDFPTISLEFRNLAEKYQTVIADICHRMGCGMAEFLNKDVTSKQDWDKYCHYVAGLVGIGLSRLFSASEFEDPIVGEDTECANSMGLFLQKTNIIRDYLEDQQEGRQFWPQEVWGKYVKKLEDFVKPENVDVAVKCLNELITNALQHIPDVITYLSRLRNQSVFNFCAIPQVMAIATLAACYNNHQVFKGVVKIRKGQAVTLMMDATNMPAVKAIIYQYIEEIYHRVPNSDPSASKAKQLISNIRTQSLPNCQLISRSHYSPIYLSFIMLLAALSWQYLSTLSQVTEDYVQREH
Experimental: The intrinsic squalene synthase inhibitory activity of representative compounds of this invention was measured by the standard in vitro protocol described below:
Preparation of Rat Liver Microsomes
Male, CHARLES RIVER CD® rats (120 to 150 g) were fed a diet containing 0.1% lovastatin for 4 days. The livers from these rats were homogenized in 5 volumes (mL/g) of ice cold 50 mM HEPES (4-(2-hydroxyethyl)-1-piperazine-ethanesulfonic acid), 5 mM EDTA(ethylenediaminetetraacetic acid) pH 7.5 with a Potter-Elvehjem type tissue grinder. The homogenate was centrifuged twice at 20,000× g for 15 min. at 4° C., discarding the pellet each time. The supernatant was then centrifuged at 100,000× g for 1 hr at 4° C. The resulting microsomal pellet was resuspended in a volume of the above homogenizing buffer equal to one-fifth the volume of the original homogenate. This microsomal preparation has a protein concentration of about 7 mg/mL. The microsomal suspensions were stored in aliquots at -70° C. Squalene synthase activity in these aliquots is stable for a least several months.
Partial Purification of Prenyl Transferase
Prenyl transferase was purified to use in the enzymatic synthesis of radiolabelled farnesyl pyrophosphate. […]

[2] = test system: Aspergillus fumigatus MF4839; test: Broth dilution antifungal assay (MIC), Aspergillus fumigatus; assay type: cell-based; conditions: 24 to 48 hours at 29° C., read-out: Minimum Inhibitory Concentration (MIC)
Experimental: as §1

[3] = target: T2, Farnesyl-protein transferase (Ftase) from bovine brain (Bos taurus, UniProt P29702+P49355); test: Farnesyl-transferase assay (inhibition of Ras farnesylation in vitro); assay type: biochemical; conditions: Ras-CVLS 3.5 μM, 0.25 μM [3H]FPP, partially purified bovine brain enzyme
T2 construct: Farnesyl-protein transferase (Ftase) from bovine brain was chromatographed on DEAE--Sephacel; from tissue; host or cells: bovine brain, partially purified by chromatography
Experimental: FARNESYL-TRANSFERASE ASSAY
Farnesyl-protein transferase (Ftase) from bovine brain was chromatographed on DEAE--Sephacel (Pharmacia, 0-0.8M NaCl gradient elution), N-octyl agarose (Sigma, 0-0.6M NaCl gradient elution), and a MONO Q HPLC column (Pharmacia, 0-0.3M NaCl gradient). Ras-CVLS at 3.5 μM, 0.25 μM [^3 H]FPP, and the indicated compounds were incubated with this partially purified enzyme preparation. The Ftase data is a measurement of the ability of the test compound to inhibit Ras farnesylation in vitro.

Row | Compound | Inhibition of Ras farnesylation in vivo (Ras farnesylation) | MFC (Candida albicans MY1055) | MFC [1] | IC50 (Squalene Synthase) | MIC [2] | IC50 [3]
1 | CC[C@H](C)C(=O)O[C@H]1C[C@@H](C)C=C2C=C[C@H](C)[C@H](CC[C@@H]3C[C@@H](O)CC(=O)O3)[C@H]21 [lovastatin] | Inhibition of Ras farnesylation in vivo has been demonstrated |  |  |  |  | 
2 | C=C(CC[C@]12O[C@H](C)[C@@](O)(C(=O)O)[C@](C(=O)O)(O1)[C@H](OC(=O)/C=C/[C@@H](C)C[C@@H](C)CC)[C@H]2O)[C@@H](OC(C)=O)[C@H](C)Cc1ccccc1 [Compound 128, IIA-3-methyl] |  | 128 µg/mL (≈ 194 µM) | 0.5 µg/mL (≈ 0.757 µM) | 3.5 nM | 16 µg/mL (≈ 24.2 µM) | 3300 nM
3 | CC[C@H](C)C(=O)O[C@H]1CCC=C2C=C[C@H](C)[C@H](CC[C@@H]3C[C@@H](O)CC(=O)O3)[C@H]21 [compactin] | Inhibition of Ras farnesylation in vivo has been demonstrated |  |  |  |  | 
